Data taken from ChEMBL document CHEMBL1146757, “Silanediol peptidomimetics. Evaluation of four diastereomeric ACE inhibitors” (Bioorg Med Chem Lett, 2004).

These compounds were tested against T1, Angiotensin-converting enzyme (Oryctolagus cuniculus, UniProt P12822) (assay: Inhibitory activity of compound against angiotensin I converting enzyme was determined).
T1 sequence (P12822 whole entry): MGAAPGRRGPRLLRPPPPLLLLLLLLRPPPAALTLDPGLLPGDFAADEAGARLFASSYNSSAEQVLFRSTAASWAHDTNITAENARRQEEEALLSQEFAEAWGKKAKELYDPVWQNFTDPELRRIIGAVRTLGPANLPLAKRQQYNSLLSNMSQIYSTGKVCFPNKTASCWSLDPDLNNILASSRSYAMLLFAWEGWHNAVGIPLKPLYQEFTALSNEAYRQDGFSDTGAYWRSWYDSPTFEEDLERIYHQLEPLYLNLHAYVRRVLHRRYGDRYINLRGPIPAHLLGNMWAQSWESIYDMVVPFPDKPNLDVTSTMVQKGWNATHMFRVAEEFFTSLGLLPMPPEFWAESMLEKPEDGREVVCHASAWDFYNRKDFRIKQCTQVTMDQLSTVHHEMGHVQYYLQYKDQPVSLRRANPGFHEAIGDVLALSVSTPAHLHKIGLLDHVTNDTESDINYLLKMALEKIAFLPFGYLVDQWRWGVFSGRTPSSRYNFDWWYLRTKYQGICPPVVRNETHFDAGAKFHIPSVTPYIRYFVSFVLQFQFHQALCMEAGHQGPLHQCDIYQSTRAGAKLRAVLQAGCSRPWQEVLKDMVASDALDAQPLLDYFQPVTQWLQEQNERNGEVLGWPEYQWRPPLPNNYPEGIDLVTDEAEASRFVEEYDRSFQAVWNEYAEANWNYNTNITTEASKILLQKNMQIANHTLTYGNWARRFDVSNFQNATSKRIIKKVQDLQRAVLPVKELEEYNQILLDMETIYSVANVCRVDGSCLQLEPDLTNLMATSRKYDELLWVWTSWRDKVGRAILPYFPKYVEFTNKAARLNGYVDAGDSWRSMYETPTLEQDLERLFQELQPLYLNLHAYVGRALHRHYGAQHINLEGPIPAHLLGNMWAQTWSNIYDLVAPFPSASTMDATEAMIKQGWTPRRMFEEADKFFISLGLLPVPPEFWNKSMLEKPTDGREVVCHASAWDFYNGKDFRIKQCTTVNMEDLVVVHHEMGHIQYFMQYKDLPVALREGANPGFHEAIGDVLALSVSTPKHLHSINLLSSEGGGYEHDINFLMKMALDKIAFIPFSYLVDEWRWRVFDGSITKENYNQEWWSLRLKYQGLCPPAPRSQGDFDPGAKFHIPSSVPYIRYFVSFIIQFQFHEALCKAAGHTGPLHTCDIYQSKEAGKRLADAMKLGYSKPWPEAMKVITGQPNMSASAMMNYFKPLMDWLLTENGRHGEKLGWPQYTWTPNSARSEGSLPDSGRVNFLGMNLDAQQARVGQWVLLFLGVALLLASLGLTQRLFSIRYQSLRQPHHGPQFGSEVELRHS
With `C[C@H](C[Si](O)(O)[C@H](Cc1ccccc1)NC(=O)c1ccccc1)C(=O)N1CCC[C@H]1C(=O)O` the IC50 was 3.8 nM. Compound `C[C@@H](C[Si](O)(O)[C@@H](Cc1ccccc1)NC(=O)c1ccccc1)C(=O)N1CCC[C@H]1C(=O)O` has an IC50 of 72 nM. In the case of `C[C@H](C[Si](O)(O)[C@@H](Cc1ccccc1)NC(=O)c1ccccc1)C(=O)N1CCC[C@H]1C(=O)O`, the IC50 is reported as 19 nM. Work on `CC(C)CC(NC(=O)c1ccccc1)[Si](O)(O)CC(C)C(=O)N1CCC[C@H]1C(=O)O` (stereo not given in full) yielded an IC50 of 14 nM. In the case of `C[C@@H](C[Si](O)(O)[C@H](Cc1ccccc1)NC(=O)c1ccccc1)C(=O)N1CCC[C@H]1C(=O)O`, the IC50 is reported as 207 nM.
